Assay results reported in patent US10863748B2, “Antibacterial products and processes for preparing antibacterial products from maple syrup” (priority 2016, dated 2020).

Test system: three bacteria and one yeast
Assay: Antimicrobial effect of melamine per se
Type: cell-based

SMILES: Nc1nc(N)nc(N)n1 [melamine, 2,4,6-triamino-1,3,5-triazine]
- antimicrobial effect: did not exhibit any antimicrobial effect
